# Assay results taken from ChEMBL document CHEMBL5465560, “Selectivity Literature for EUbOPEN Chemogenomic Library” (2024).
# Assays:
# [1] = molecular target: BDNF/NT-3 growth factors receptor (Homo sapiens) (UniProt Q16620); experiment: Selectivity interaction (KinomeScan (DiscoverX)) EUB0000666a NTRK2; details: at 10 µM
# [2] = molecular target: Mitogen-activated protein kinase kinase kinase kinase 5 (Homo sapiens) (UniProt Q9Y4K4); experiment: Selectivity interaction (KinomeScan (DiscoverX)) EUB0001079a MAP4K5; details: at 1 µM
# [3] = molecular target: Serine/threonine-protein kinase MRCK alpha (Homo sapiens) (UniProt Q5VT25); experiment: Selectivity interaction (Kinase panel (DSF assay)) EUB0001558a CDC42BPA
# [4] = molecular target: T1, Receptor-type tyrosine-protein kinase FLT3 (Homo sapiens, UniProt P36888); experiment: Selectivity interaction (NanoBRET assay (HEK293T cells)) EUB0001559a FLT3; type: cell-based, HEK-293T
# T1 sequence (P36888 whole entry): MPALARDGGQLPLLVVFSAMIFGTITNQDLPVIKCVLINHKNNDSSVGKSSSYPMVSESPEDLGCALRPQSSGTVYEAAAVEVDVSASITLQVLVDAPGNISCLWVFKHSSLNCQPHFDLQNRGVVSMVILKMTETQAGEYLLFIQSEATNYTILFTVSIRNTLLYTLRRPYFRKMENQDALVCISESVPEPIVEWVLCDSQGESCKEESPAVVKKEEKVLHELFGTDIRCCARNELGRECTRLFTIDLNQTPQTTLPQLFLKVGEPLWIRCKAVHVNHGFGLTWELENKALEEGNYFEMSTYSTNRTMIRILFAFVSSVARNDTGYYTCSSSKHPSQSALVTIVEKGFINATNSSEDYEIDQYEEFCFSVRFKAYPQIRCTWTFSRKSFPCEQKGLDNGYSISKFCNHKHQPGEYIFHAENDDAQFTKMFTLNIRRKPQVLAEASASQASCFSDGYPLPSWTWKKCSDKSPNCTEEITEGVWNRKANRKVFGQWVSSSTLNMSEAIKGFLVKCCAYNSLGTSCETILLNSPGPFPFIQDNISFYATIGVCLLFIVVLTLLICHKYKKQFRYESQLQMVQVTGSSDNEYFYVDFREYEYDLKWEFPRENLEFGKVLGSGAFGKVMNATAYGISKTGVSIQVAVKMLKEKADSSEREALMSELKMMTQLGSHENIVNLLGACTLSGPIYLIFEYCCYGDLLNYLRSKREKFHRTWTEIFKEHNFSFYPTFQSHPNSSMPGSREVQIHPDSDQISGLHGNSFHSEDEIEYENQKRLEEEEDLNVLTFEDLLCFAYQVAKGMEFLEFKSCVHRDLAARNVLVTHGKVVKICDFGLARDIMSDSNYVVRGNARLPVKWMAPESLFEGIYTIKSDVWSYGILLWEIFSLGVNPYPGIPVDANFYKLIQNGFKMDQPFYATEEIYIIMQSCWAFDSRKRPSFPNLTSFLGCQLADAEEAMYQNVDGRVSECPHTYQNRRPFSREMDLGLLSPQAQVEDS
# [5] = molecular target: Tyrosine-protein kinase JAK1 (Homo sapiens, UniProt P23458); experiment: Selectivity interaction (ActivX KiNativ screen (kinase selectivity in THP-1 cell lysates)) EUB0000639a JAK1; type: subcellular; details: lysate, at 0.04 µM
# [6] = tested on: Mast/stem cell growth factor receptor Kit (Homo sapiens), P10721 [V559D]; experiment: (§1) Selectivity interaction (KinomeScan (DiscoverX)) EUB0000092b KIT; details: at 10 µM
# [7] = tested on: Mast/stem cell growth factor receptor Kit (Homo sapiens), P10721 [L576P]; experiment: as §1; details: at 10 µM
# [8] = molecular target: Cyclin-dependent kinase 13 (Homo sapiens, UniProt Q14004); experiment: Selectivity interaction (ActivX KiNativ screen (ex vivo kinase selectivity in human PBMCs)) EUB0001619a CDK13; type: cell-based; details: PBMC, at 1 µM
# [9] = molecular target: T2, Ephrin type-A receptor 8 (Homo sapiens) (UniProt P29322); experiment: Selectivity interaction (SelectScreen profiling (Invitrogen)) EUB0000607a EPHA8; details: at 2 µM
# T2 sequence (whole entry): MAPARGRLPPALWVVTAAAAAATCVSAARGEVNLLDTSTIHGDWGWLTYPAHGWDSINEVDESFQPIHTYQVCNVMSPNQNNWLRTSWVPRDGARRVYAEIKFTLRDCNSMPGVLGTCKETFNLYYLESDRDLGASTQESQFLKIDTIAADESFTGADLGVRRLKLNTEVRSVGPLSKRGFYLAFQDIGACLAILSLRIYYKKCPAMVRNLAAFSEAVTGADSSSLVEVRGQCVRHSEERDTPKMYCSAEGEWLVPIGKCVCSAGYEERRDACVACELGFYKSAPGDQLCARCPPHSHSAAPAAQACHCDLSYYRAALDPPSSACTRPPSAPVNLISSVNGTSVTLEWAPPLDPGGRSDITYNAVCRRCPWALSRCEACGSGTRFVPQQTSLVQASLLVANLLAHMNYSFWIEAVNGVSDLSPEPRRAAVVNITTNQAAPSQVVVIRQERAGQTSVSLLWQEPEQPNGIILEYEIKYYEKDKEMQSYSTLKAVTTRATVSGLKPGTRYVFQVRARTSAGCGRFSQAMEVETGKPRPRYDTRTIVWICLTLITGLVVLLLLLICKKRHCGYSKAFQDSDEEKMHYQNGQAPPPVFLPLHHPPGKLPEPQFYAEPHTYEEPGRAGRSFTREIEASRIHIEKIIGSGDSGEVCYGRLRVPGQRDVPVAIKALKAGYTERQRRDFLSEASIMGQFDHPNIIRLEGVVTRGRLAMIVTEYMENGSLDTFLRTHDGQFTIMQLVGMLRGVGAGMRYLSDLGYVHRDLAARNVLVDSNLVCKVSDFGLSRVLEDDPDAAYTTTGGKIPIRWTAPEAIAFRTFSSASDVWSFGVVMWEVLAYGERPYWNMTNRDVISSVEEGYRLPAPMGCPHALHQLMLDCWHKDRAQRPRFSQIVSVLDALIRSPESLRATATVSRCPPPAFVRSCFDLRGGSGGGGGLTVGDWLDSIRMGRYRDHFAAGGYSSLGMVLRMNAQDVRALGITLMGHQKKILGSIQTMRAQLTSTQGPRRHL
# [10] = molecular target: T3, Serine/threonine-protein kinase 17A (Homo sapiens) (UniProt Q9UEE5); experiment: Selectivity interaction (KinomeScan (DiscoverX)) EUB0000607a STK17A; details: at 10 µM
# T3 sequence (whole entry): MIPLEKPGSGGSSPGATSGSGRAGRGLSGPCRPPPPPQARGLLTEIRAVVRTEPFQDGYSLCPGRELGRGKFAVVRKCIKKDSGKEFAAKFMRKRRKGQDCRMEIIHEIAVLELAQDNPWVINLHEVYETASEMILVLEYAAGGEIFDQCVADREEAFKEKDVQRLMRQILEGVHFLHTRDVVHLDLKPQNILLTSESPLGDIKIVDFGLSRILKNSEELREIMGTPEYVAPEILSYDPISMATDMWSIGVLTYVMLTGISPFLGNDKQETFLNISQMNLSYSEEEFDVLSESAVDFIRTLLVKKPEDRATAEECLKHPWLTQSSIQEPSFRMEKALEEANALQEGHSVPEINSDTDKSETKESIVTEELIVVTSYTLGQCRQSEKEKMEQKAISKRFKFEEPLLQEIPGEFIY
# Cyclin-dependent kinase 13, sequence (Q14004 whole entry, looked up): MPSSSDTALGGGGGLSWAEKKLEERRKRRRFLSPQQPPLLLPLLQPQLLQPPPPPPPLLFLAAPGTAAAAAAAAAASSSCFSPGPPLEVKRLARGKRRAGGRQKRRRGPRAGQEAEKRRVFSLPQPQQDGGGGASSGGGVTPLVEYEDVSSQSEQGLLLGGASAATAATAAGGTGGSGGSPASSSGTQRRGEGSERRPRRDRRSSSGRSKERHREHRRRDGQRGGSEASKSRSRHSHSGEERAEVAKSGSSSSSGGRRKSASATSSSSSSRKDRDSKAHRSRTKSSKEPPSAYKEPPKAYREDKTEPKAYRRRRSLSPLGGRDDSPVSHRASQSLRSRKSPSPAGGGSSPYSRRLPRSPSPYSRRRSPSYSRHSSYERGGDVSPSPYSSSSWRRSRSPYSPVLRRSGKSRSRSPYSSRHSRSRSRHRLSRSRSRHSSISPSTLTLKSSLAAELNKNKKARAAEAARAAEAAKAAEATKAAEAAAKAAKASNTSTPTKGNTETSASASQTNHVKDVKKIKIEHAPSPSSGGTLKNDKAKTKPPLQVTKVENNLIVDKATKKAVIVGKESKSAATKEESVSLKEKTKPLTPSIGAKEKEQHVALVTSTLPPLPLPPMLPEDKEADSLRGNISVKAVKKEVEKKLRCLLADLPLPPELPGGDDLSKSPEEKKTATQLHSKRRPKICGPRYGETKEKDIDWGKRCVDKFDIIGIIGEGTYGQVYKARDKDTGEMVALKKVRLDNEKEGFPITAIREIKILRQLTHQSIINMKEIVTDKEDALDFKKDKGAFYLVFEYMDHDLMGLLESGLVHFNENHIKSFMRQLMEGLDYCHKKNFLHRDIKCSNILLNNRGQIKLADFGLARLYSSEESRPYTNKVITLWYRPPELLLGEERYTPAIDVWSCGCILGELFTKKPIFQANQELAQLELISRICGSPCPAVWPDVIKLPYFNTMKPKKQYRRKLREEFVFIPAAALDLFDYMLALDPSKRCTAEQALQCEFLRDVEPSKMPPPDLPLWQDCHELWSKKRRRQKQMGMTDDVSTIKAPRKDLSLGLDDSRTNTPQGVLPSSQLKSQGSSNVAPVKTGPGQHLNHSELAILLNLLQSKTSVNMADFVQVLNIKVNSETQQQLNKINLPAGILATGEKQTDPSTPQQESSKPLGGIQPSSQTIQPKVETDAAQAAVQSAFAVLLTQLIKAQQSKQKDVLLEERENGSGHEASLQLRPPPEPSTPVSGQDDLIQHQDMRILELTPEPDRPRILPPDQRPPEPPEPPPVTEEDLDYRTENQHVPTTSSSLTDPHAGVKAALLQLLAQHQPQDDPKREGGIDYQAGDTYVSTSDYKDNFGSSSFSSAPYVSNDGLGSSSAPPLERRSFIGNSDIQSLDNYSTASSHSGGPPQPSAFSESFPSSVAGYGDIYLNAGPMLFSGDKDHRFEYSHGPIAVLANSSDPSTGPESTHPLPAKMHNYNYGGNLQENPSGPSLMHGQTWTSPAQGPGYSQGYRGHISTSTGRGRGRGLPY
# BDNF/NT-3 growth factors receptor (Homo sapiens), sequence (Q16620 32-822 limits assumed): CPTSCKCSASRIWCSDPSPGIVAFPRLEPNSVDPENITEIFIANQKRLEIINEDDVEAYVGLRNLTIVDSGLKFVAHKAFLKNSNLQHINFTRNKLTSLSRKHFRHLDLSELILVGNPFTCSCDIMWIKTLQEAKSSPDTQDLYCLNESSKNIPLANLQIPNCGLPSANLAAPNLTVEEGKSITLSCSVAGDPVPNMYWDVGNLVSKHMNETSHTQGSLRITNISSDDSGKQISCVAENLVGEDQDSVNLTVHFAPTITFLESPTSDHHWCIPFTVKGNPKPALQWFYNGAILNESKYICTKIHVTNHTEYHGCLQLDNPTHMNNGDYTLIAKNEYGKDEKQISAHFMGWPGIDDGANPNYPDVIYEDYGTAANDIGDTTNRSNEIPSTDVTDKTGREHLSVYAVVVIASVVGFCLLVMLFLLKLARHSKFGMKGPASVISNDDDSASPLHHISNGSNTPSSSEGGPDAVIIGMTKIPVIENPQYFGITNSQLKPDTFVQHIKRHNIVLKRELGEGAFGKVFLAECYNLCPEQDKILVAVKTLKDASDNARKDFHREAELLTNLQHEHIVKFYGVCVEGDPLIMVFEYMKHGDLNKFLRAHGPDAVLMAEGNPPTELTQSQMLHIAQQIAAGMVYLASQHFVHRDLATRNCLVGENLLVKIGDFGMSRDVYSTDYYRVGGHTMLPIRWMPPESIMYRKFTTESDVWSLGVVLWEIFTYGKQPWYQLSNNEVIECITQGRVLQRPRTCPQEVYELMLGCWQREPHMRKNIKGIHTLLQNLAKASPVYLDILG
# Serine/threonine-protein kinase MRCK alpha (Homo sapiens), sequence (Q5VT25 whole entry): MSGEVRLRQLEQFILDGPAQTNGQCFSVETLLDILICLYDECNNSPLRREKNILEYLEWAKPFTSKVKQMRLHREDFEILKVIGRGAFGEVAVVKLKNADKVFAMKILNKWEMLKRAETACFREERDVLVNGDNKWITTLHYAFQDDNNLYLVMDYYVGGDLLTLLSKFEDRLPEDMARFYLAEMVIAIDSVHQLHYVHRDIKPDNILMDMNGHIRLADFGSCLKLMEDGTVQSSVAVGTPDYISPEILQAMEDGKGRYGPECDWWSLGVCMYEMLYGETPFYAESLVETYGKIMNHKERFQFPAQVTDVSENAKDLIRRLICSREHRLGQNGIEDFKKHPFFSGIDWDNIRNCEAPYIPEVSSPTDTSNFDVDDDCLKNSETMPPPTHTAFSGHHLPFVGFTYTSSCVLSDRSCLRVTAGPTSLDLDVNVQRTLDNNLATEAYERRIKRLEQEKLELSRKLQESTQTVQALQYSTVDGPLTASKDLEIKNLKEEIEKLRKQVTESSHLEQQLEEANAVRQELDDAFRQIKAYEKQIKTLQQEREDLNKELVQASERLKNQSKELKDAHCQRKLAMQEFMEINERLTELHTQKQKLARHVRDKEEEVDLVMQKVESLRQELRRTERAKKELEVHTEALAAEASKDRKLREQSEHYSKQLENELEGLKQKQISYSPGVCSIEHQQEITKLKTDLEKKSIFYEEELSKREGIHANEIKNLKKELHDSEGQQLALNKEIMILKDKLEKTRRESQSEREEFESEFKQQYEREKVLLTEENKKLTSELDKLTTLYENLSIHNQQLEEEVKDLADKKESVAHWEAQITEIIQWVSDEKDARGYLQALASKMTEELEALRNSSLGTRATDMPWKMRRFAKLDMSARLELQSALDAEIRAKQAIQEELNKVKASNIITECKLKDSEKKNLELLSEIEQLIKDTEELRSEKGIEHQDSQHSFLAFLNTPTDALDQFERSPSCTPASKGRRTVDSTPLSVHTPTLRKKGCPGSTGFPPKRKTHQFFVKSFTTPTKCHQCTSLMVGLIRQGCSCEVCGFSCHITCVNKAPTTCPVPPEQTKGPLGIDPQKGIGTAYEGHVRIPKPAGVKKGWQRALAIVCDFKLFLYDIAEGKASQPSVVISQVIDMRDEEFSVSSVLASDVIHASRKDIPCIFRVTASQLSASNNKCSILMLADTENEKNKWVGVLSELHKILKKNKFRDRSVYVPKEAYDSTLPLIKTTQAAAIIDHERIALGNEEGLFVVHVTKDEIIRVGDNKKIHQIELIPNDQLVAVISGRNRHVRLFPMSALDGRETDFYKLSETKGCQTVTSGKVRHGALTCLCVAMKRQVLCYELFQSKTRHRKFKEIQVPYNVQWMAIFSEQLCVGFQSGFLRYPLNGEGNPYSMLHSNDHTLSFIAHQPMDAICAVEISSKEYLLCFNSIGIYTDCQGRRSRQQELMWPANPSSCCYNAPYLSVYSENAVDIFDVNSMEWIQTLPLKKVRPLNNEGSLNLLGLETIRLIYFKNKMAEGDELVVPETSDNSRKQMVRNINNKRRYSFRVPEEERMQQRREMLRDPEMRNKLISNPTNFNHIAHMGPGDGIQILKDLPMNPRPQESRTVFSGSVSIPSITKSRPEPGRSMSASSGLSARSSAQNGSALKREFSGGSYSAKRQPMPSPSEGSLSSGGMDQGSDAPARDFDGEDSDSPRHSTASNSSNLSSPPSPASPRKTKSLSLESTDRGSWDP
# Mitogen-activated protein kinase kinase kinase kinase 5 (Homo sapiens), sequence (Q9Y4K4 whole entry, looked up): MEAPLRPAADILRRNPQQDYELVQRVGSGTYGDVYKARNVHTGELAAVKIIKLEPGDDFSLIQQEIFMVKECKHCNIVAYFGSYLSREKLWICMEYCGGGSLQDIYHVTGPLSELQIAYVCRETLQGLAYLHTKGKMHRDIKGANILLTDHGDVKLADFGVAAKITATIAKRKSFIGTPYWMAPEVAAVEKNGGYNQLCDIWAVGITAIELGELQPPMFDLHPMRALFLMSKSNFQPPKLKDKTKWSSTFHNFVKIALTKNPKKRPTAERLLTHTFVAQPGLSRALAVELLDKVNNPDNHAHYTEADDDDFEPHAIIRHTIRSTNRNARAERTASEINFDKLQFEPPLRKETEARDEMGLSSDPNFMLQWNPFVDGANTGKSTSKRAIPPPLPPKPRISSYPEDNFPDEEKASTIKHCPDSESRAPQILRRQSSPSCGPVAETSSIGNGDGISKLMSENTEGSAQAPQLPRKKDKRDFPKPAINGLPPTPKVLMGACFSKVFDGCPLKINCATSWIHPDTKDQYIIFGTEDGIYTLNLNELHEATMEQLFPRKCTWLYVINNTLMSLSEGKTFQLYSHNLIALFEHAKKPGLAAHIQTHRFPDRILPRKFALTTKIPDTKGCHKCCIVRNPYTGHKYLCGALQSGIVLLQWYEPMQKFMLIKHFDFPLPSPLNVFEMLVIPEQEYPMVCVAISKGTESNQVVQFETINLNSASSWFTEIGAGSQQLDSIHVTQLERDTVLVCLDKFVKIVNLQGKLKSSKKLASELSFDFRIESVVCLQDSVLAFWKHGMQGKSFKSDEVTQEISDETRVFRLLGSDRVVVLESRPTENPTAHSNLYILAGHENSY
structure (smiles),measurement,setting,value
O=C(NOC[C@H](O)CO)c1ccc(F)c(F)c1Nc1ccc(I)cc1F,% of control,[1],100%
Nc1cnc(N2CCc3cc(S(=O)(=O)Nc4c(F)cc(Cl)cc4F)cc(N4CCCC4=O)c32)nc1 [TP-020n],% of control,[2],73%
CC(C)(O)[C@H](F)CN1Cc2cc(NC(=O)c3cnn4cccnc34)c(N3CCOCC3)cc2C1=O,dTM,[3],0.2 K
CN(C(=O)c1cnn2cccnc12)c1cc2c(cc1N1CCOCC1)C(=O)N(C[C@@H](F)C(C)(C)O)C2,EC50,[4],3.6 mM
CC[C@@H]1[C@H](F)C(=O)N[C@@H]1COc1nccc2cc(C(N)=O)c(OC)cc12 [ZIMLOVISERTIB],% of inhibition,[5],-11.6%
CCC(=O)N1CCN(c2ccc(-n3c(=O)ccc4cnc5ccc(-c6cnc7ccccc7c6)cc5c43)cc2C(F)(F)F)CC1,% of control,[6],50%
same,% of control,[7],48%
N#Cc1cccc(-c2c[nH]c3ncnc(N4CCOCC4)c23)c1,% of inhibition,[8],3%
CNC(=O)Nc1ccc(-c2nc(N3CC4CCC(C3)O4)c3cnn(C4CCC5(CC4)OCCO5)c3n2)cc1,% of inhibition,[9],24%
same,% of control,[10],100%
